biological target: T1, human RXFP1 (Homo sapiens, UniProt Q9HBX9); assay: human RXFP1 (hRXFP1) HEK293 cAMP assay (HTRF); format: cell-based; conditions: HEK293 cells stably expressing human RXFP1, 30 min at room temperature
T1 construct: expressed in transfected cells
T1 sequence (Q9HBX9 1-757): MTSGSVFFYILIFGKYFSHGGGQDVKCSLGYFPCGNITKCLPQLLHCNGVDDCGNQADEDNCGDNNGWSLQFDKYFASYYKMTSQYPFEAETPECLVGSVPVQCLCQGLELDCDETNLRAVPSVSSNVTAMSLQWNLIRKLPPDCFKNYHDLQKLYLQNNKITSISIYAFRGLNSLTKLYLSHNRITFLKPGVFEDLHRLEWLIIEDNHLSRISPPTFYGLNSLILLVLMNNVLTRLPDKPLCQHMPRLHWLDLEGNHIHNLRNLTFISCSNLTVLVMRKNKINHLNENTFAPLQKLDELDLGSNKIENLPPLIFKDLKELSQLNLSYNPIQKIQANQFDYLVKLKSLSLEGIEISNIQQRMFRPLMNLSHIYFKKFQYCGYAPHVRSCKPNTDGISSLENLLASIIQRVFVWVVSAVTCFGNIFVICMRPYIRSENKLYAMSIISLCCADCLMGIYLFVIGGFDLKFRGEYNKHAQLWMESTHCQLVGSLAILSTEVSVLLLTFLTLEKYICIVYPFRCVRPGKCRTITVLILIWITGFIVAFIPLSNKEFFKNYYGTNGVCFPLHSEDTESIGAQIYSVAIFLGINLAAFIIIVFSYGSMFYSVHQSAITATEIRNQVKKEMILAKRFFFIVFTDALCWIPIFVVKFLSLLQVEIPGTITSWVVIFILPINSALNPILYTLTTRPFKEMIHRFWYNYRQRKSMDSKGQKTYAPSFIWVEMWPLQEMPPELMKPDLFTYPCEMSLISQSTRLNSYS
Description: RXFP1 Cyclic Adenosine Monophosphate (cAMP) Assays. […] Cells were dissociated and suspended in assay buffer. The assay buffer was HBSS buffer (with calcium and magnesium) containing 20 mM HEPES, 0.05% BSA, and 0.5 mM IBMX. Cells (3000 cells per well, except 1500 cell per well for HEK293 cells stably expressing human RXFP1) were added to 384-well Proxiplates (Perkin-Elmer). Cells were immediately treated with test compounds in DMSO (2% final) at final concentrations in the range of 0.010 nM to 50 µM. Cells were incubated for 30 min at room temperature. The level of intracellular cAMP was determined using the HTRF HiRange cAMP assay reagent kit (Cisbio) according to manufacturer's instructions. Solutions of cryptate conjugated anti-cAMP and d2 fluorophore-labelled cAMP were made in a supplied lysis buffer separately. Upon completion of the reaction, the cells were lysed with equal volume of the d2-cAMP solution and anti-cAMP solution. […] The potency and activity of a compound to […] cAMP production was then determined by fitting to a 4-parametric logistic equation from a plot of cAMP level versus compound concentrations.

Row | EC50 [nM] | Structure (SMILES)
1 | 3.8 | CC1(C)Cc2cc(C3=NOC4CCOCC34)cc(C(=O)N[C@H]3[C@@H](C(=O)Nc4ccc(F)c(C(F)(F)F)c4)[C@H]4CC[C@@H]3/C4=C\C3CC3)c2O1 (stereo partly drawn) [Example 147, 5-{3aH,4H,6H, 7H,7aH-pyrano[3,4-d][1,2]oxazol-3-yl}-N-[(1R,2R,3S,4R,7Z)-7-(cyclopropyl-methylidene)-3-{[4-fluoro-3-(trifluoromethyl)phenyl]carbamoyl}bicyclo[2.2.1]heptan-2-yl]-2,2-dimethyl-2,3-dihydro-1-benzofuran-7-carboxamide]
2 | 160 | COc1cnc(C2=NOC3COCC23)cc1C(=O)N[C@H]1[C@@H](C(=O)Nc2ccc(F)c(C(F)(F)F)c2)[C@H]2CC[C@@H]1/C2=C\C1CC1 (single isomer, unassigned) [Example 72]
3 | 1.4 | COc1ncc(-c2cc([C@H](OC(=O)NC3CC3)C(F)(F)F)ccc2F)cc1C(=O)N[C@@H]1C2CCC(/C2=C/C2CCCC2)[C@@H]1C(=O)Nc1ccc(F)c(C(F)(F)F)c1 (stereo partly drawn) [Example 164, (1S)-1-[3-(5-{[(1R,2R,3S,4R, 7Z)-7-(cyclopentyl-methylidene)-3-{[4-fluoro-3-(trifluoromethyl)phenyl]carbamoyl}bicyclo[2.2.1]heptan-2-yl]carbamoyl}-6-methoxypyridin-3-yl)-4-fluorophenyl]-2,2,2-trifluoroethyl N-cyclopropylcar-bamate]
4 | 4 | COc1ncc(C2=NOC3CC(C(O)C(F)(F)F)CC23)cc1C(=O)N[C@H]1[C@@H](C(=O)Nc2ccc(F)c(C(F)(F)F)c2)[C@H]2CC[C@@H]1/C2=C\C1CC1 (stereo partly drawn) [Example 135, N-((1R,2R,3S,4R,Z)-7-(cyclopropyl-methylene)-3-((4-fluoro-3-(trifluoromethyl)phenyl)carbamoyl)bicyclo[2.2.1]heptan-2-yl)-2-methoxy-5-(5-(2,2,2-trifluoro-1-hydroxyethyl)-3a,5,6,6a-tetrahydro-4H-cyclopenta[d]isoxazol-3-yl)nicotinamide]
5 | 3000 | O=C(N[C@@H]1C2CCC(/C2=C/C(F)(F)F)[C@@H]1C(=O)Nc1ccc(F)c(C(F)(F)F)c1)c1cc(Br)cc2c1OCC2 (stereo partly drawn) [Example 58, 5-bromo-N-[(2R,3S,7Z)-3-{[4-fluoro-3-(trifluoromethyl)phenyl]carbamoyl}-7-(2,2,2-trifluoro-ethylidene)bicyclo[2. 2.1]heptan-2-yl]-2,3-dihydro-1-benzofuran-7-carboxamide]
6 | 300 | COc1ncc(C2=NOC3CC(CO)CC23)cc1C(=O)N[C@@H]1C2CCC(/C2=C/C2CC2)[C@@H]1C(=O)Nc1ccc(F)c(C(F)(F)F)c1 (single isomer, unassigned) [Example 67]
7 | 34 | COc1ncc(-c2cc(C(=O)O)ccc2F)cc1C(=O)N[C@@H]1C2CCC(/C2=C/C(F)(F)F)[C@@H]1C(=O)Nc1ccc(F)c(C(F)(F)F)c1 (stereo partly drawn) [Example 28, 4-Fluoro-3-(5-{[(2R,3S,7Z)-3-{[4-fluoro-3-(trifluoromethyl)phenyl]carbamoyl}-7-(2,2,2-trifluoroethylidene)bicyclo[2. 2.1]heptan-2-yl]carbamoyl}-6-methoxypyridin-3-yl)benzoic acid]
8 | 6.5 | CC(C)(O)CN1CC2ON=C(c3cc4c(c(C(=O)N[C@H]5[C@@H](C(=O)Nc6ccc(F)c(C(F)(F)F)c6)[C@H]6CC[C@@H]5/C6=C\C5CC5)c3)OC(C)(C)C4)C2C1 (stereo partly drawn) [Example 179, N-[(1R,2R,3S,4R, 7Z)-7-(cyclopropyl-methylidene)-3-{[4-fluoro-3-(trifluoromethyl)phenyl]carbamoyl}bicyclo[2.2.1]heptan-2-yl]-5-[5-(2-hydroxy-2-methylpropyl)-3aH,4H,5H,6H, 6aH-pyrrolo[3,4-d][1,2]oxazol-3-yl]-2,2-dimethyl-2,3-dihydro-1-benzofuran-7-carboxamide]
9 | 3.4 | COc1ncc(-c2cnc3n2CC(O)CC3)cc1C(=O)N[C@H]1[C@@H](C(=O)Nc2ccc(F)c(C(F)(F)F)c2)[C@H]2CC[C@@H]1/C2=C\C1CC1 (stereo partly drawn) [Example 103, N-((1R,2R,3S,4R,Z)-7-(cyclopropyl-methylene)-3-((4-fluoro-3-(trifluoromethyl)phenyl)carbamoyl)bicyclo[2.2.1]heptan-2-yl)-5-(6-hydroxy-5,6,7,8-tetrahydroimidazo [1,2-a]pyridin-3-yl)-2-methoxynicotinamide]
10 | 5000 | COc1ncncc1C(=O)N[C@@H]1C2CCC(C2=C(C)C)[C@@H]1C(=O)Nc1ccc(F)c(C(F)(F)F)c1 (stereo partly drawn) [Example 10, N-[(2R,3S)-3-{[4-fluoro-3-(trifluoromethyl)phenyl]carbamoyl}-7-(propan-2-ylidene)bicyclo [2.2.1]heptan-2-yl]-4-methoxypyrimidine-5-carboxamide]
11 | 260 | COc1cn(CCCO)nc1C(=O)N[C@H]1[C@@H](C(=O)Nc2ccc(F)c(C(F)(F)F)c2)[C@H]2CC[C@@H]1/C2=C\C1CC1 [Example 80, N-[(1R,2R,3S, 4R,7Z)-7-(cyclopropyl-methylidene)-3-{[4-fluoro-3-(trifluoromethyl)phenyl]carbamoyl}bicyclo[2.2.1]heptan-2-yl]-1-(3-hydroxypropyl)-4-methoxy-1H-pyrazole-3-carboxamide]
12 | 2.5 | COc1ncc(-c2cc([C@H](OC(=O)NC3CC3)C(F)(F)F)ccc2F)cc1C(=O)N[C@H]1[C@@H](C(=O)Nc2ccc(F)c(C(F)(F)F)c2)[C@H]2CC[C@@H]1/C2=C\C(C)C [Example 166, (1S)-2,2,2-trifluoro-1-[4-fluoro-3-(5-{[(1R,2R,3S,4R, 7Z)-3-{[4-fluoro-3-(trifluoromethyl)phenyl]carbamoyl}-7-(2-methylpropylidene)bicyclo[2.2.1]heptan-2-yl]carbamoyl}-6-methoxypyridin-3-yl)phenyl]ethyl N-cyclopropyl-carbamate]
13 | 71 | COc1cn(CCS(C)(=O)=O)nc1C(=O)N[C@H]1[C@@H](C(=O)Nc2ccc(F)c(C(F)(F)F)c2)[C@H]2CC[C@@H]1/C2=C\C1CC1 [Example 77, N-[(1R,2R,3S,4R,7Z)-7-(cyclopropylmethylidene)-3-{[4-fluoro-3-(trifluoromethyl)phenyl]carbamoyl}bicyclo[2.2.1]heptan-2-yl]-1-(2-methanesulfonylethyl)-4-methoxy-1H-pyrazole-3-carboxamide]
14 | 1.3 | CC1Cc2cc(C3=NOC4CC(O)(C(F)(F)F)CC34)cc(C(=O)N[C@H]3[C@@H](C(=O)Nc4ccc(F)c(C(F)(F)F)c4)[C@H]4CC[C@@H]3/C4=C\C3CCCC3)c2O1 (stereo partly drawn) [Example 156, N-[(1R,2R,3S,4R, 7Z)-7-(cyclopentyl-methylidene)-3-{[4-fluoro-3-(trifluoromethyl)phenyl]carbamoyl}bicyclo[2.2.1]heptan-2-yl]-5-[5-hydroxy-5-(trifluoromethyl) 3aH,4H,5H,6H, 6aH-cyclopenta[d][1,2]oxazol-3-yl]-2-methyl-2,3-dihydro-1-benzofuran-7-carboxamide]
15 | 120 | O=C(N[C@@H]1C2CCC(/C2=C/C2CC2)[C@@H]1C(=O)Nc1ccc(F)c(C(F)(F)F)c1)c1cncc(C2=NOC3COCC23)c1 (single isomer, unassigned) [Example 63]
16 | 4.6 | COc1ncc(C2=NOC3CC(C(OC(=O)Nc4ccccc4)C4CC4)CC23)cc1C(=O)N[C@@H]1C2CCC(/C2=C/C2CCCC2)[C@@H]1C(=O)Nc1ccc(F)c(C(F)(F)F)c1 (stereo partly drawn) [Example 162, [3-(5-{[(2R,3S,7Z)-7-(cyclopentyl-methylidene)-3-{[4-fluoro-3-(trifluoromethyl)phenyl]carbamoyl}bicyclo[2.2.1]heptan-2-yl]carbamoyl}-6-methoxypyridin-3-yl)-3aH,4H,5H,6H, 6aH-cyclopenta[d][1,2]oxazol-5-yl](cyclopropyl) methyl N-phenylcarbamate]
17 | 2300 | O=C(O)c1ccc(F)c(C23COC(C(=O)N[C@H]4[C@@H](C(=O)Nc5ccc(F)c(C(F)(F)F)c5)[C@H]5CC[C@@H]4/C5=C\C(F)(F)F)(C2)C3)c1 [Example 81, 4-fluoro-3-(1-(((1R,2R,3S,4R,Z)-3-((4-fluoro-3-(trifluoromethyl)phenyl)carbamoyl)-7-(2,2,2-trifluoroethylidene)bicyclo[2.2.1]heptan-2-yl)carbamoyl)-2-oxabicyclo[2.1.1]hexan-4-yl)benzoic acid]

From patent publication US20250011288A1 (BRISTOL-MYERS SQUIBB COMPANY, priority 2021, published 2025)
